Laboratory results published in US20210038570A1, “COMPOSITIONS AND METHODS FOR TREATING CUTANEOUS FIBROSIS” (Timber Pharmaceuticals, Inc., priority 2018, published 2021).

Assays:
[1] = test system: donor one normal human dermal fibroblasts induced with TGF-β1; assay: Apoptosis assay (Caspase-Glo 3/7 luminescence); assay type: cell-based; settings: for Apoptosis, relative light units: 50 ng/mL TGF-β1, 48 hours; for Effect on apoptosis (in words): statistics at 100 μM vs vehicle control and between groups (FIG. 6)
Experimental: The effect of sitaxentan on cell viability, cell cytotoxicity, and apoptosis was measured in an assay using donor one normal human dermal fibroblasts induced with TGF-β1 into a profibrotic phenotype. For these assays cells were grown for 48 hours in the presence of vehicle control, sitaxentan, and bosentan. The appropriate assay reagents and measuring techniques were used as indicated herein. donor one normal human dermal fibroblast cells (LLCT FC0024 lot 03869_ fibroblast) were seeded to confluence in 96 well plates in 10% fetal bovine serum (FBS) Dulbecco's modified eagle medium (DMEM). The cells were washed to remove the FBS, and serum free media is added overnight (O/N). The cells were then stimulated with 50 ng/mL TGF-β1 and treated for 48 hours. For the apoptosis assay: 100 μl of Caspase-Glo® 3/7 Reagent (Promega, Cat #G6320), for the apoptosis assay, was subsequently added after the viability/cytotoxicity fluorescent reads and briefly mixed. The plate was incubated for an additional 30 minutes at room temperature prior to the measurement of luminescence to detect apoptosis. Data were analyzed using GraphPad Prism 7. Six to nine replicates were run for each sample.

[2] = test system: donor one normal human dermal fibroblasts induced with TGF-β1; assay: Scratch (wound closure) assay, donor one NHDFs induced with TGF-β1; assay type: cell-based; settings: for Scratch assay distance change: 50 ng/mL TGF-β1, 24 hours; for Effect on migration of fibroblasts (in words): donor one NHDFs, statistics at 100 μM vs vehicle control (FIG. 1)
Experimental: The effect of sitaxentan in a wound closure assay was measured using donor one normal human dermal fibroblasts induced with TGF-β1 into a profibrotic phenotype. […] For this assay the cells were grown to confluence, a scratch/ablation, i.e. “wound”, was created, and migration across the cleared zone was tracked. See, http://journals.plos.org/plosone/article?id=10.1371/journal.pone.0007438 and Wu, M. et al. Rosiglitazone abrogates bleomycin-induced scleroderma and blocks profibrotic responses through peroxisome proliferator-activated receptor-gamma. Am J Pathol174, 519-533, doi:10.2353/ajpath.2009.080574 (2009) donor one normal human dermal fibroblast cells (LLCT FC0024 lot 03869_ fibroblast) were seeded to confluence in 96 well plates in 10% fetal bovine serum (FBS) Dulbecco's modified eagle medium (DMEM). The cells were washed to remove the FBS, and serum free media was added for 16 hr overnight (O/N). Scratch assays were performed across each confluent monolayer. […] The cells were treated with increasing concentrations (1 μM, 3 μM, 10 μM, 30 μM, and 100 μM) of vehicle control, sitaxentan, and bosentan (as a comparator compound), in the presence of 50 ng/mL TGF-β1 to induce fibrogenesis. Six replicate samples were run for each concentration. Time zero images were taken and initial distance of the scratch/ablation recorded. The samples were incubated for 24 hours at 37° C., after which the media was removed and […] calcein acetoxymethyl (calcein AM) was added. The samples were incubated for 30 minutes. Images were taken and the distance of the scratch/ablation recorded. Decreases in distance indicated “wound” closure. Distances were calculated and analyzed using GraphPad Prism 7.

[3] = test system: donor one normal human dermal fibroblasts induced with TGF-β1; assay: Cell cytotoxicity assay (bis-AAF-R110 fluorescence); assay type: cell-based; settings: for Cell cytotoxicity, relative fluorescence units: 50 ng/mL TGF-β1, 48 hours; for Cytotoxicity compared to the vehicle control (in words): statistics at 100 μM (FIG. 5); for Cytotoxicity, bosentan compared with sitaxentan (in words): statistics at 100 μM between groups (FIG. 5)
Experimental: (§1) The effect of sitaxentan on cell viability, cell cytotoxicity, and apoptosis was measured in an assay using donor one normal human dermal fibroblasts induced with TGF-β1 into a profibrotic phenotype. For these assays cells were grown for 48 hours in the presence of vehicle control, sitaxentan, and bosentan. The appropriate assay reagents and measuring techniques were used as indicated herein. donor one normal human dermal fibroblast cells (LLCT FC0024 lot 03869_ fibroblast) were seeded to confluence in 96 well plates in 10% fetal bovine serum (FBS) Dulbecco's modified eagle medium (DMEM). The cells were washed to remove the FBS, and serum free media is added overnight (O/N). The cells were then stimulated with 50 ng/mL TGF-β1 and treated for 48 hours. The following reagents were used for the different assays: For the cell viability/cytotoxicity assay: A master mix of the viability/cytotoxicity reagent was made by combining 10 uL of each substrate (GF-AFC and bis-AAF-R110) to 2 mLs of Assay Buffer (Promega, Cat #G6320). 20 μl of this viability/cytotoxicity reagent was then added to each well and briefly mixed. […] Data were analyzed using GraphPad Prism 7. Six to nine replicates were run for each sample.

[4] = test system: donor one normal human dermal fibroblasts induced with TGF-β1; assay: Cell viability assay (GF-AFC fluorescence); assay type: cell-based; settings: 50 ng/mL TGF-β1, 48 hours
Experimental: as §1

[5] = oral bosentan; cited from earlier work
[6] = test system: donor one normal human dermal fibroblasts induced with TGF-β1; assay: Collagen production, AlphaLISA hPIP assay; assay type: cell-based; settings: for human procollagen Type I C-peptide (HPIP) level: 50 ng/mL TGF-β1, 48 hours; for Effect on elevated collagen levels (in words): statistics at 100 μM vs vehicle control and between groups (FIG. 3)
Experimental: The effect of sitaxentan on collagen production was measured in an AlphaLISA assay using donor one normal human dermal fibroblasts induced with TGF-β1 into a profibrotic phenotype. For this assay cells were grown for 48 hours in the presence of vehicle control, sitaxentan, and bosentan. See, http://www.perkinelmer.com/product/alphalisa-hpip-collagen-[…]. An AlphaLISA assay was used, which is a variation of FRET (Fluorescence resonance energy transfer) technology that allows for the detection of molecules of interest in a no-wash, highly sensitive, quantitative assay. In an AlphaLISA assay, a biotinylated anti-analyte antibody binds to Streptavidin-coated donor beads while another anti-analyte antibody is conjugated to AlphaLISA Acceptor beads. In the presence of the analyte, the beads come into close proximity. The excitation of the donor beads cause the release of singlet oxygen molecules that trigger a cascade of energy transfer in the acceptor beads, resulting in a sharp peak of light emission at 615 nm. donor one normal human dermal fibroblast cells (LLCT FC0024 lot 03869_ fibroblast) were seeded to confluence in 96 well plates in 10% fetal bovine serum (FBS) Dulbecco's modified eagle medium (DMEM). The cells were washed to remove the FBS, and serum free media was added overnight (O/N). The cells were then stimulated with 50 ng/mL TGF-β1 and treated. The supernatant media above the cells in the wells was collected and diluted 1:20 in serum-free DMEM media. 5 μL of each hPIP analyte standard or 5 μL of sample was added. 10 μL of 5× […] Acceptor beads was added (10 μg/mL final). The plate was incubated 30 minutes at 23° C. 10 μL of 5× Biotinylated Anti-hPIP Antibody was added (1 nM). The plate was incubated 60 minutes at 23° C. 25 μL of 2× Streptavidin-Donor beads were added (40 μg/mL final). The plate was incubated 30 minutes at 23° C. in the dark. The plate was read using a Perkin Elmer EnVision-Alpha Reader (615 nm). Data were analyzed using GraphPad Prism 7. Three to four replicates were run for each sample.

[7] = in vivo; cited from earlier work

Structure (SMILES) | Apoptosis, relative light units ([1]; 1 μM) [RLUs] | Apoptosis, relative light units ([1]; 3 μM) [RLUs] | Apoptosis, relative light units ([1]; 10 μM) [RLUs] | Apoptosis, relative light units ([1]; 30 μM) [RLUs] | Apoptosis, relative light units ([1]; 100 μM) [RLUs] | Effect on apoptosis (in words) [1] | Scratch assay distance change ([2]; 1 μM) [µm] | Scratch assay distance change ([2]; 3 μM) [µm] | Scratch assay distance change ([2]; 10 μM) [µm] | Scratch assay distance change ([2]; 30 μM) [µm] | Scratch assay distance change ([2]; 100 μM) [µm] | Effect on migration of fibroblasts (in words) [2] | Cell cytotoxicity, relative fluorescence units ([3]; 1 μM) [RFUs] | Cell cytotoxicity, relative fluorescence units ([3]; 3 μM) [RFUs] | Cell cytotoxicity, relative fluorescence units ([3]; 10 μM) [RFUs] | Cell cytotoxicity, relative fluorescence units ([3]; 30 μM) [RFUs] | Cell cytotoxicity, relative fluorescence units ([3]; 100 μM) [RFUs] | Cytotoxicity compared to the vehicle control (in words) [3] | Cytotoxicity, bosentan compared with sitaxentan (in words) [3] | Cell viability, relative fluorescence units ([4]; 1 μM) [RFUs] | also measured
COc1ccccc1Oc1c(NS(=O)(=O)c2ccc(C(C)(C)C)cc2)nc(-c2ncccn2)nc1OCCO [BOS] | 39366.8 | 38639.8 | 38586.7 | 42825.2 | 43330.7 | elevated | 478 | 356 | 359 | 535 | 414 | no significant effect | 4256.9 | 3954.2 | 3764.0 | 4607.5 | 3929.0 | neither bosentan nor sitaxentan was significantly more cytotoxic than the vehicle control | significantly more cytotoxic than sitaxentan | 5406.8 | Cell viability, relative fluorescence units ([4]; 3 μM): 5548.5 RFUs; Cell viability, relative fluorescence units ([4]; 10 μM): 5521.2 RFUs; Cell viability, relative fluorescence units ([4]; 30 μM): 5537.0 RFUs; Cell viability, relative fluorescence units ([4]; 100 μM): 5584.3 RFUs; Cessation of treatment due to liver enzyme abnormalities, share of patients [5]: about 5%; Liver enzyme abnormalities, share of patients affected [5]: about 10%; human procollagen Type I C-peptide (HPIP) level ([6]; 1 μM): 8.2 ng/mL; human procollagen Type I C-peptide (HPIP) level ([6]; 3 μM): 8.6 ng/mL; human procollagen Type I C-peptide (HPIP) level ([6]; 10 μM): 7.9 ng/mL; human procollagen Type I C-peptide (HPIP) level ([6]; 30 μM): 7.1 ng/mL; human procollagen Type I C-peptide (HPIP) level ([6]; 100 μM): 6.8 ng/mL; Effect on elevated collagen levels (in words) [6]: significantly decreased elevated collagen levels
Cc1cc2c(cc1CC(=O)c1sccc1S(=O)(=O)Nc1onc(C)c1Cl)OCO2 [SIT, N-(4-Chloro-3-methyl-5-isoxazolyl)-2-[(2-methyl-4,5-methylenedioxyphenyl)-acetyl]thiophene-3-sulfonamide] | 37593.4 | 39162.8 | 39512.0 | 46053.5 | 51050.2 | significantly more potent effect than bosentan | 506 | 557 | 496 | 494 | 269 | significantly reduced the migration | 4643.9 | 5058.3 | 4741.7 | 3837.5 | 2911.3 | neither bosentan nor sitaxentan was significantly more cytotoxic than the vehicle control | significantly less cytotoxic | 5678.3 | Metabolism [7]: hepatic (CYP2C9- and CYP3A4-mediated); Protein binding [7]: > 99%; Cell viability, relative fluorescence units ([4]; 3 μM): 5639.0 RFUs; Cell viability, relative fluorescence units ([4]; 10 μM): 5600.5 RFUs; Cell viability, relative fluorescence units ([4]; 30 μM): 5250.8 RFUs; Cell viability, relative fluorescence units ([4]; 100 μM): 5171.0 RFUs; human procollagen Type I C-peptide (HPIP) level ([6]; 1 μM): 7.0 ng/mL; human procollagen Type I C-peptide (HPIP) level ([6]; 3 μM): 7.1 ng/mL; human procollagen Type I C-peptide (HPIP) level ([6]; 10 μM): 6.4 ng/mL; human procollagen Type I C-peptide (HPIP) level ([6]; 30 μM): 5.8 ng/mL; human procollagen Type I C-peptide (HPIP) level ([6]; 100 μM): 2.2 ng/mL; Effect on elevated collagen levels (in words) [6]: significantly more efficacious than bosentan and returning collagen levels to untreated / uninduced levels
